According to patent publication US6409810B1, “Water-soluble trisazo compounds, aqueous ink composition and colored article” (Nippon Kayaku Kabushiki Kaisha, priority 1997, dated 2002):

Columns and labels:
Format in all cases: physicochemical
[1] = Test for resistance to water of the recorded images (immersion in water, visual examination of dropout); set-up: key to water fastness plain paper: ∘: Less amount of the compound was dropped out.; Δ: About half of the compound was dropped out.; X: Large amount of the compound was dropped out; conditions: immersed in water 2 minutes with mild stirring, dried; for water fastness ink jet paper A: ink jet print on ink jet paper A; for water fastness ink jet paper B: ink jet print on ink jet paper B; for water fastness plain paper: ink jet print on plain paper
Experimental: (§1) A liquid having the following formulation was prepared and passed through a 0.45 μm membrane filter to obtain an aqueous ink composition for ink jet printers.
(§2) An ink jet recording was conducted on three different papers, i.e. plain papers (Canon printer paper A4 (TLB5A4S)), ink jet papers A (Color BJ Paper LC 101; ex. Canon) and ink jet papers B (coated papers for ink jet printer STX73 A4; ex. Sharp) by means of an ink jet printer (trade name NOVA JET III; ex. ENCAD). The thus-recorded images were tested with respect to the resistances to light and water and a color rendering property.
Test specimen was immersed in water contained in a beaker with mild stirring for 2 minutes and dried. Amount of the compound was observed by the visual examination before and after the immersion, and dropout of the compound was judged.

[2] = Color rendering property (hue change under tungsten light versus standard light source, visual); set-up: key: ∘: Change in hue was small.; Δ: Change in hue was somewhat large.; X: Change in hue was large; conditions: hue change under tungsten light compared with standard light source
Experimental: as §1, §2
Discoloration was judged by the visual examination by comparing the hue change under the tungsten light with that under the standard light source.

[3] = Test for resistance to light of the recorded images (carbon arc fade meter, Blue Scale JIS L-0841); conditions: 20 hours carbon arc fade meter; for light fastness (rank) ink jet paper A: ink jet print on ink jet paper A (Color BJ Paper LC 101, Canon); for light fastness (rank) ink jet paper B: ink jet print on ink jet paper B (coated paper STX73 A4, Sharp); for light fastness (rank) plain paper: ink jet print on plain paper (Canon TLB5A4S)
Experimental: as §1, §2
The recorded images were irradiated with light for 20 hours by means of a carbon arc fade meter (ex. SUGA Shikenkisha). Light fastness was judged according to the Blue Scale for light resistance standard as defined in JIS L-0841.

SMILES	water fastness ink jet paper A [1]	color rendering property [2]	light fastness (rank) ink jet paper A [3]	light fastness (rank) ink jet paper B [3]	light fastness (rank) plain paper [3]	water fastness ink jet paper B [1]	water fastness plain paper [1]
Nc1cc2c(O)c(N=Nc3ccc(N=Nc4ccc(S(=O)(=O)[O-])cc4)c4ccc(S(=O)(=O)[O-])cc34)c(S(=O)(=O)[O-])cc2cc1S(=O)(=O)[O-].[Na+].[Na+].[Na+].[Na+] [compound 1, C.I. Food Black 2, reference compound]	◯	Δ	3 rank	4-5 rank	4-5 rank		
COc1cc(N=Nc2cc(S(=O)(=O)O)cc3cc(S(=O)(=O)O)cc(O)c23)c(C)cc1N=Nc1c(S(=O)(=O)O)cc2ccc(N=Nc3ccc(N)cc3O)cc2c1O [compound 0002]	◯	◯	4 rank	5 rank	4-5 rank	◯	Δ˜◯
COc1cc(N=Nc2cc(S(=O)(=O)O)cc3cc(S(=O)(=O)O)cc(O)c23)c(C)cc1N=Nc1c(S(=O)(=O)O)cc2ccc(N=Nc3ccc(NCC(=O)O)cc3NCC(=O)O)cc2c1O [compound 0007]	◯	◯	3-4 rank	4 rank	4 rank	◯	◯
COc1cc(N=Nc2cc(S(=O)(=O)O)cc3cc(S(=O)(=O)O)cc(O)c23)c(NC(C)=O)cc1N=Nc1c(S(=O)(=O)O)cc2ccc(N=Nc3ccc(O)cc3O)cc2c1O [compound 0012]	◯	◯	3-4 rank	4 rank	4-5 rank	◯	Δ
COc1cc(N=Nc2cc(S(=O)(=O)O)cc3cc(S(=O)(=O)O)cc(O)c23)c(NC(C)=O)cc1N=Nc1c(S(=O)(=O)O)cc2ccc(N=Nc3cc(S(=O)(=O)O)c(N)cc3N)cc2c1O [compound 0014]	◯	◯	5 rank	5 rank	5 rank	◯	Δ
COCCOc1cc(N=Nc2cc(S(=O)(=O)O)cc3cc(S(=O)(=O)O)cc(O)c23)c(NC(C)=O)cc1N=Nc1c(S(=O)(=O)O)cc2ccc(N=Nc3cc(S(=O)(=O)O)c(N)cc3N)cc2c1O [compound 0022]	◯	◯	5 rank	5 rank	5 rank	◯	Δ˜◯
O=S(=O)(O)c1cc(O)c2c(N=Nc3ccc(N=Nc4c(S(=O)(=O)O)cc5ccc(N=Nc6ccc(O)cc6O)cc5c4O)c4cc(S(=O)(=O)O)ccc34)cc(S(=O)(=O)O)cc2c1 [compound 0025]	◯	◯	3 rank	4 rank	4-5 rank	◯	x˜Δ
COc1cc(N=Nc2cc(S(=O)(=O)O)cc3cc(S(=O)(=O)O)cc(O)c23)c(N)cc1N=Nc1c(S(=O)(=O)O)cc2ccc(N=Nc3cc(S(=O)(=O)O)c(N)cc3N)cc2c1O [compound 0048]	◯	◯	4 rank	5 rank	4-5 rank	◯	◯
COCCOc1cc(N=Nc2cc(S(=O)(=O)O)cc3cc(S(=O)(=O)O)cc(O)c23)c(N)cc1N=Nc1c(S(=O)(=O)O)cc2ccc(N=Nc3cc(S(=O)(=O)O)c(N)cc3N)cc2c1O [compound 0051]	◯	◯	4 rank	5 rank	4-5 rank	◯	◯
COc1cc(N=Nc2cc(S(=O)(=O)O)cc3cc(S(=O)(=O)O)cc(O)c23)c(NC(C)=O)cc1N=Nc1c(S(=O)(=O)O)cc2cc(S(=O)(=O)O)c(N=Nc3ccc(N)cc3O)cc2c1O [compound 0231]	◯	◯	4 rank	5 rank	4-5 rank	◯	Δ

Further lines, results first:

water fastness ink jet paper A [1]	color rendering property [2]	light fastness (rank) ink jet paper A [3]	light fastness (rank) ink jet paper B [3]	light fastness (rank) plain paper [3]	water fastness ink jet paper B [1]	water fastness plain paper [1]	SMILES
◯	◯	4-5 rank	5 rank	5 rank	◯	Δ˜◯	COc1cc(N=Nc2cc(S(=O)(=O)O)cc3cc(S(=O)(=O)O)cc(O)c23)c(C)cc1N=Nc1c(S(=O)(=O)O)cc2ccc(N=Nc3ccc(N)cc3N)cc2c1O [compound 0001]
◯		2 rank	4 rank	4 rank	◯	◯	Nc1ccc2cc(S(=O)(=O)O)c(N=Nc3ccc(N=Nc4cc(C(=O)O)cc(C(=O)O)c4)c4ccccc34)c(O)c2c1 [compound 2, reference compound]
◯	◯	3-4 rank	4-5 rank	4-5 rank	◯	Δ	COc1cc(N=Nc2cc(S(=O)(=O)O)cc3cc(S(=O)(=O)O)cc(O)c23)c(C)cc1N=Nc1c(S(=O)(=O)O)cc2ccc(N=Nc3ccc(O)cc3O)cc2c1O [compound 0003]
◯	◯	4-5 rank	5 rank	5 rank	◯	Δ˜◯	COc1cc(N=Nc2cc(S(=O)(=O)O)cc3cc(S(=O)(=O)O)cc(O)c23)c(C)cc1N=Nc1c(S(=O)(=O)O)cc2ccc(N=Nc3cc(S(=O)(=O)O)c(N)cc3N)cc2c1O [compound 0005]
◯	◯	4 rank	4 rank	4-5 rank	◯	Δ˜◯	COc1cc(N=Nc2cc(S(=O)(=O)O)cc3cc(S(=O)(=O)O)cc(O)c23)c(NC(C)=O)cc1N=Nc1c(S(=O)(=O)O)cc2ccc(N=Nc3ccc(N)cc3O)cc2c1O [compound 0011]
◯	◯	5 rank	5 rank	5 rank	◯	Δ˜◯	COCCOc1cc(N=Nc2cc(S(=O)(=O)O)cc3cc(S(=O)(=O)O)cc(O)c23)c(NC(C)=O)cc1N=Nc1c(S(=O)(=O)O)cc2ccc(N=Nc3ccc(N)cc3N)cc2c1O [compound 0019]
◯	◯	4 rank	5 rank	4-5 rank	◯	Δ˜◯	COCCOc1cc(N=Nc2cc(S(=O)(=O)O)cc3cc(S(=O)(=O)O)cc(O)c23)c(NC(C)=O)cc1N=Nc1c(S(=O)(=O)O)cc2ccc(N=Nc3ccc(N)cc3O)cc2c1O [compound 0020]
◯	◯	4 rank	5 rank	5 rank	◯	x˜Δ	Nc1cc(N)c(S(=O)(=O)O)cc1N=Nc1ccc2cc(S(=O)(=O)O)c(N=Nc3ccc(N=Nc4cc(S(=O)(=O)O)cc5cc(S(=O)(=O)O)cc(O)c45)c4ccc(S(=O)(=O)O)cc34)c(O)c2c1 [compound 0027]
◯	◯	4 rank	4 rank	4 rank	◯	Δ˜◯	COc1cc(N=Nc2cc(S(=O)(=O)O)cc3cc(S(=O)(=O)O)cc(O)c23)c(NC(C)=O)cc1N=Nc1c(S(=O)(=O)O)cc2cc(S(=O)(=O)O)c(N=Nc3ccc(O)cc3O)cc2c1O [compound 0232]
